Reference: ChEMBL document CHEMBL6109039, “Designed and synthesized novel tripeptides targeting diabetes and its related pathologies” (Eur J Med Chem, 2025)

Assays:
Format in all cases: functional
[1] = system: Mus musculus; assay: Antidiabetic activity in Nicotinamide/Streptozotocin induced male Balb/c mouse model assessed as change in body weight at 10 mg/kg, po treated for 21 days (reference value: 16.62 +/- 0.83 g); settings: time 21 day
[2] = system: Mus musculus; assay: Antidiabetic activity in Nicotinamide/Streptozotocin induced male Balb/c mouse model assessed as reduction in alanine aminotransferase level in blood at 10 mg/kg, po treated for 21 days (reference value: 111 +/- 5.05 U/L); settings: time 21 day
[3] = system: Mus musculus; assay: Antidiabetic activity in Nicotinamide/Streptozotocin induced male Balb/c mouse model assessed as Non-HDL-Cholesterol level in blood at 10 mg/kg, po treated for 21 days (reference value: 75 mg/dL); settings: time 21 day
[4] = system: Mus musculus; assay: Antidiabetic activity in Nicotinamide/Streptozotocin induced male Balb/c mouse model assessed as reduction in fasting blood glucose levels at 10 mg/kg, po measured immediately by glucometer analysis (reference value: 127.50 +/- 6.87 mg/dl)
[5] = system: Mus musculus; assay: Antidiabetic activity in Nicotinamide/Streptozotocin induced male Balb/c mouse model assessed as TC/HDL-Cholesterol ratio in blood at 10 mg/kg, po treated for 21 days (reference value: 4.03); settings: time 21 day
[6] = system: Mus musculus; assay: Antidiabetic activity in Nicotinamide/Streptozotocin induced male Balb/c mouse model assessed as reduction in VLDL-Cholesterol level in blood at 10 mg/kg, po treated for 21 days (reference value: 14 +/- 0.6 mg/dL); settings: time 21 day
[7] = system: Mus musculus; assay: Antidiabetic activity in Nicotinamide/Streptozotocin induced male Balb/c mouse model assessed as relative liver weight at 10 mg/kg, po treated for 21 days (reference value: 0.77 +/- 0.04 mg/g); settings: time 21 day
[8] = system: Mus musculus; assay: Antidiabetic activity in Nicotinamide/Streptozotocin induced male Balb/c mouse model assessed as reduction in aspartate transaminase level in blood at 10 mg/kg, po treated for 21 days (reference value: 171 +/- 8.55 U/L); settings: time 21 day
[9] = system: Mus musculus; assay: Antidiabetic activity in Nicotinamide/Streptozotocin induced male Balb/c mouse model assessed as change in body weight at 10 mg/kg, po measured immediately (reference value: 25.08 +/- 1.25 g)
[10] = system: Mus musculus; assay: Antidiabetic activity in Nicotinamide/Streptozotocin induced male Balb/c mouse model assessed as change in body weight at 10 mg/kg, po treated for 21 days relative to control; settings: time 21 day
[11] = system: Mus musculus; assay: Antidiabetic activity in Nicotinamide/Streptozotocin induced male Balb/c mouse model assessed as LDL-Cholesterol/HDL Cholesterol ratio in blood at 10 mg/kg, po treated for 21 days (reference value: 1.53); settings: time 21 day
[12] = system: Mus musculus; assay: Antidiabetic activity in Nicotinamide/Streptozotocin induced male Balb/c mouse model assessed as reduction in HDL-Cholesterol level in blood at 10 mg/kg, po treated for 21 days (reference value: 30 +/- 1.80 mg/dL); settings: time 21 day
[13] = system: Mus musculus; assay: Antidiabetic activity in Nicotinamide/Streptozotocin induced male Balb/c mouse model assessed as reduction in fasting blood glucose levels at 10 mg/kg, po measured after 7 days by glucometer analysis (reference value: 160.5 +/- 8.02 mg/dl); settings: time 7 day
[14] = system: Mus musculus; assay: Antidiabetic activity in Nicotinamide/Streptozotocin induced male Balb/c mouse model assessed as reduction in fasting blood glucose levels at 10 mg/kg, po measured after 21 days by glucometer analysis (reference value: 180.5 +/- 9.02 mg/dl); settings: time 21 day
[15] = system: Mus musculus; assay: Antidiabetic activity in Nicotinamide/Streptozotocin induced male Balb/c mouse model assessed as reduction in total cholesterol level in blood at 10 mg/kg, po treated for 21 days (reference value: 121 +/- 6.05 mg/dL); settings: time 21 day
[16] = system: Mus musculus; assay: Antidiabetic activity in Nicotinamide/Streptozotocin induced male Balb/c mouse model assessed as reduction in LDL-Cholesterol level in blood at 10 mg/kg, po treated for 21 days (reference value: 46 +/- 2.30 mg/dL); settings: time 21 day
[17] = system: Mus musculus; assay: Antidiabetic activity in Nicotinamide/Streptozotocin induced male Balb/c mouse model assessed as reduction in HbA1c levels at 10 mg/kg, po treated for 21 days by Turbidimetric inhibition immunoassay; design: scale not given: the % may be the effect or the level left; settings: time 21 day
[18] = system: Mus musculus; assay: Antidiabetic activity in Nicotinamide/Streptozotocin induced male Balb/c mouse model assessed as reduction in Triglycerides level in blood at 10 mg/kg, po treated for 21 days (reference value: 61 +/- 3.05 mg/dL); settings: time 21 day
[19] = system: Mus musculus; assay: Antidiabetic activity in Nicotinamide/Streptozotocin induced male Balb/c mouse model assessed as reduction in fasting blood glucose levels at 10 mg/kg, po measured after 14 days by glucometer analysis (reference value: 168.5 +/- 8.42 mg/dl); settings: time 14 day

CCC1=C(C)CN(C(=O)NCCc2ccc(S(=O)(=O)NC(=O)N[C@H]3CC[C@H](C)CC3)cc2)C1=O [GLIMEPIRIDE]
Activity [1]: 22.58 g | Activity [2]: 97 U/L | Activity [3]: 82 mg/dL | Activity [4]: 109 mg/dL | Ratio [5]: 2.91 | Activity [6]: 12 mg/dL | Activity [7]: 1.23 mg/g | Activity [8]: 153 U/L | Activity [9]: 12.94 g | Activity [10]: 42.69% | Ratio [11]: 0.702 | Activity [12]: 37 mg/dL | Activity [13]: 143.5 mg/dL | Activity [14]: 111.5 mg/dL | Activity [15]: 108 mg/dL | Activity [16]: 26 mg/dL | Activity [17]: 7.1% | Activity [18]: 56 mg/dL | Activity [19]: 108.5 mg/dL
